These results are taken from ChEMBL document CHEMBL5223101, “Evolution of 3-(4-hydroxyphenyl)indoline-2-one as a scaffold for potent and selective anticancer activity” (RSC Med Chem, 2022).

The test system of test [1] is T47D. Description: Anticancer activity against human T47D cells assessed as cell proliferation incubated for 4 days by MTS assay. It counts as functional, cell-based. Conditions: 96 h.
For another test, the system named is HeLa. Description: Anticancer activity against human HeLa cells assessed as cell viability at 1 uM by tryphan blue staining based cell counter analysis relative to control. It counts as functional. Conditions: read-out: Activity.
Test [2] has as its system MDA-MB-231. The test can be described thus: Anticancer activity against human MDA-MB-231 cells assessed as cell viability at 1 uM by tryphan blue staining based cell counter analysis relative to control. It counts as functional. The following applies: read-out: Activity.
The next test relates to MCF7. Description: Anticancer activity against human MCF7 cells assessed as cell viability at 1 uM by tryphan blue staining based cell counter analysis relative to control. It counts as functional. Conditions: read-out: Activity.
A further test concerns HEK-293T. Description: Anticancer activity against human HEK293T cells assessed as cell viability at 1 uM by tryphan blue staining based cell counter analysis relative to control. The test is classed as functional. The following applies: read-out: Activity.
A further test has as its system BT-474. Description: Anticancer activity against human BT-474 cells assessed as cell viability at 1 uM by tryphan blue staining based cell counter analysis relative to control. It counts as functional. Conditions: read-out: Activity.
Another test has as its system ES-2. Description: Anticancer activity against human ES2 assessed as cell viability at 1 uM by tryphan blue staining based cell counter analysis relative to control. It counts as functional. Conditions: read-out: Activity.
Test [3] has as its system T47D. Description: Anticancer activity against human T47D cells assessed as cell viability at 1 uM by tryphan blue staining based cell counter analysis relative to control. The test is classed as functional. Conditions: read-out: Activity.
The next test relates to MCF-10A. The test can be described thus: Anticancer activity against human MCF-10A cells assessed as cell viability at 1 uM by tryphan blue staining based cell counter analysis relative to control. It counts as functional. The following applies: read-out: Activity.
The subject of test [4] is MDA-MB-231. Description: Anticancer activity against human MDA-MB-231 cells assessed as cell growth inhibition incubated for 24 hrs. The test is classed as functional, cell-based. Conditions: MDA-MB-231, 24 h, pooled result: one value given for 13 cell lines, strains, targets or settings.
Test [5] concerns T47D. Description: Anticancer activity against human T47D cells assessed as cell growth inhibition incubated for 24 hrs. It counts as functional, cell-based. Conditions: pooled result: one value given for 16 cell lines, strains, targets or settings.

Consider `Cc1cccc2c1NC(=O)C2(c1ccc(O)cc1)c1ccc(O)cc1`, for which, in the test on T47D [1], the IC50 was determined as 15 nM. For the same molecule, the viability at 1 µM with HeLa, in the test on MDA-MB-231 [2], with MCF7, in the test with HEK-293T, in the test on BT-474 and in the test with ES-2 was under 20% in each case. Further, the viability at 1 µM in the test with T47D [3] and in the test with MCF-10A was under 20% in each case.
For `O=C1Nc2c(C(F)(F)F)cccc2[C@@]1(c1ccc(O)cc1)c1ccc(OC(F)(F)F)cc1`, the IC50 with MDA-MB-231 [4] is 12400 nM; with T47D [5], 34 nM.
